The record followed here is PMC6036575, “Reincarnation of Bacteriocins From the Lactobacillus Pangenomic Graveyard” (Frontiers in Microbiology, 2018).

One test concerns L. innocua DPC3572. Description: Bacteriocin activity (BU/ml), dilution series in well diffusion assay. The format is cell-based, Listeria innocua. The note with it: inverse of the highest dilution of bacterial supernatant showing activity in a well diffusion assay. The procedure: (§1) Bacteriocin activity was determined using well diffusion assays (WDAs). For Tuner^TM (DE3) E. coli transformants both the cell supernatant and the cell lysates were analyzed for antimicrobial activity, whilst only the supernatants were analyzed for L. paracasei NFBC338 cells. Supernatant was isolated by centrifugation of the liquid cultures at 4000 RCF for 15 min, these supernatants were then filtered using 0.20 μm membrane filters. For cell lysates, cell pellets were resuspended in 5 ml of phosphate-buffered saline (PBS), cells were lysed by sonication using a MSE Soniprep 150 (MSE, London, UK). Lysates were subsequently centrifuged at 4000 RCF for 15 min and the resulting supernatants were filtered using 0.20 μm membrane filters. For the indicator plates, 50 μl of an overnight culture of the indicator strain was added to the appropriate media containing 1% agar. Plates were cooled and 7 mm wells were bored in the agar. 50 μl of the cell supernatants/lysates being tested were added to each well and plates were refrigerated for 2 h prior to incubation under the appropriate conditions. WDAs were carried out in triplicate for each bacteriocin.
(§2) E. coli Tuner^TM (DE3) cells transformed with the newly constructed plasmids were grown in LB supplemented with glucose to maintain a low-copy number and bacteriocin expression was induced by co-incubation of the clones with 50 μM IPTG for 3 h. WDAs were used to identify bacteriocin activity from the bacterial supernatants and cell lysates. Bacteriocins were exclusively found in the bacterial supernatant. Antimicrobial activity was lower in cases where the native leader of the bacteriocin sequence was used; with only four of the nine strains displaying zones of inhibition against a sensitive indicator (pediocin 20336a has an identical leader to pediocin PA-1). For expression in L. paracasei NFBC338, cells were transformed by electroporation with the bacteriocin-containing pNZ44 vectors. Positive transformants were grown overnight and the neutralized cell free supernatant was used to identify bacteriocin production in WDAs.
On the technique in general: A growth-free zone around the sample is the usual read-out of agar diffusion tests.

A further test deals with L. crustorum JCM 15951. Description: Well diffusion assay, spectrum of bacteriocin activity. The format is cell-based. The note with it: 50 μl filtered supernatant of E. coli Tuner (DE3) transformants encoding the pediocin PA-1 leader, 7 mm wells, triplicate. The procedure:
as §1, §2
(§3) The spectrum of activity was determined using WDAs against 32 indicator strains for bacteriocins produced by the E. coli transformants encoding the pediocin leader (Table 2). Despite being of the same class of bacteriocins, these novel antimicrobials display a varying spectrum of activity. […] Many of these bacteriocins, however, can inhibit a wide range of Gram positive bacteria including potential pathogens such as Enterococcus faecalis. As with most class IIa bacteriocins, these also display potent anti-listerial activity.

Test [1] concerns Li. monocytogenes DPC 6893. The test is described as above. The note with it: 50 μl filtered supernatant of E. coli Tuner (DE3) transformants encoding the pediocin PA-1 leader, 7 mm wells, triplicate. It is filed as cell-based. The procedure:
as §1, §2, §3

The subject of test [2] is Li. monocytogenes WSL 1416. The test is described as above. The note with it: 50 μl filtered supernatant of E. coli Tuner (DE3) transformants encoding the pediocin PA-1 leader, 7 mm wells, triplicate. The format is cell-based. The procedure:
as §1, §2, §3

The test system of a further test is L. apodemi DSM 16654. Described as above. The format is cell-based. The note with it: 50 μl filtered supernatant of E. coli Tuner (DE3) transformants encoding the pediocin PA-1 leader, 7 mm wells, triplicate. The procedure: as §1, §2, §3
The next test deals with L. mali DSM 20444. The description is as above. It is filed as cell-based. The note with it: 50 μl filtered supernatant of E. coli Tuner (DE3) transformants encoding the pediocin PA-1 leader, 7 mm wells, triplicate. The procedure: as §1, §2, §3
Test [3] has as its system P. ethanolidurans DSM 22301. Described as above. The format is cell-based. The note with it: 50 μl filtered supernatant of E. coli Tuner (DE3) transformants encoding the pediocin PA-1 leader, 7 mm wells, triplicate. The procedure:
as §1, §2, §3

Test [4] concerns Pediococcus stilesii DSM 18001. The description is as above. The format is cell-based. The note with it: 50 μl filtered supernatant of E. coli Tuner (DE3) transformants encoding the pediocin PA-1 leader, 7 mm wells, triplicate. The procedure:
as §1, §2, §3

The subject of test [5] is Enterococcus faecalis LMG 7397. The description is as above. The format is cell-based. The note with it: 50 μl filtered supernatant of E. coli Tuner (DE3) transformants encoding the pediocin PA-1 leader, 7 mm wells, 1% agar, triplicate. The procedure:
as §1, §2, §3

Test [6] deals with Listeria innocua DPC 3572. Described as above. It is filed as cell-based. The note with it: 50 μl filtered supernatant of E. coli Tuner (DE3) transformants encoding the pediocin PA-1 leader, 7 mm wells, triplicate. The procedure: as §1, §2, §3
Test [7] deals with Li. monocytogenes DPC 6894. Described as above. It is filed as cell-based. The note with it: 50 μl filtered supernatant of E. coli Tuner (DE3) transformants encoding the pediocin PA-1 leader, 7 mm wells, triplicate. The procedure: as §1, §2, §3
For another test, the system named is E.mundtii LMG 10748. The test is described as above. It is filed as cell-based. The note with it: 50 μl filtered supernatant of E. coli Tuner (DE3) transformants encoding the pediocin PA-1 leader, 7 mm wells, triplicate. The procedure: as §1, §2, §3
The subject of test [8] is L. paralimentarius DSM 13961. The description is as above. The note with it: 50 μl filtered supernatant of E. coli Tuner (DE3) transformants encoding the pediocin PA-1 leader, 7 mm wells, triplicate. The format is cell-based. The procedure:
as §1, §2, §3

For the next test, the system named is P. clausenii DSM 14800. The test is described as above. It is filed as cell-based. The note with it: 50 μl filtered supernatant of E. coli Tuner (DE3) transformants encoding the pediocin PA-1 leader, 7 mm wells, triplicate. The procedure: as §1, §2, §3
The next test relates to L. plantarum DSM 13273. The test is described as above. It is filed as cell-based. The note with it: 50 μl filtered supernatant of E. coli Tuner (DE3) transformants encoding the pediocin PA-1 leader, 7 mm wells, triplicate. The procedure: as §1, §2, §3
The subject of the next test is L. amylophilus DSM 20509. The description is as above. It is filed as cell-based. The note with it: 50 μl filtered supernatant of E. coli Tuner (DE3) transformants encoding the pediocin PA-1 leader, 7 mm wells, triplicate. The procedure:
as §1, §2, §3

Test [9] deals with E. saccharolyticus DPC 4902. The description is as above. The format is cell-based. The note with it: 50 μl filtered supernatant of E. coli Tuner (DE3) transformants encoding the pediocin PA-1 leader, 7 mm wells, triplicate. The procedure: as §1, §2, §3
The test system of a further test is L. nodensis DSM 16982. Described as above. The format is cell-based. The note with it: 50 μl filtered supernatant of E. coli Tuner (DE3) transformants encoding the pediocin PA-1 leader, 7 mm wells, triplicate. The procedure: as §1, §2, §3
For a further test, the system named is L. kimchicus JCM 15530. Described as above. The format is cell-based. The note with it: 50 μl filtered supernatant of E. coli Tuner (DE3) transformants encoding the pediocin PA-1 leader, 7 mm wells, triplicate. The procedure: as §1, §2, §3
The test system of a further test is 32 indicator strains. Description: Well diffusion assays against the panel of 32 indicator strains. The format is cell-based. The note with it: for Total no. of strains inhibited: of 32 indicator strains, supernatant of E. coli transformants encoding the pediocin leader. The procedure: as §1, §2, §3
For another test, the system named is L. amylovorus DSM 20531. Description: Well diffusion assay, spectrum of bacteriocin activity. The note with it: 50 μl filtered supernatant of E. coli Tuner (DE3) transformants encoding the pediocin PA-1 leader, 7 mm wells, triplicate. It is filed as cell-based. The procedure: as §1, §2, §3
Where [10] appears, read: produced by E. coli Tuner (DE3).
Where [11] appears, read: produced by L. paracasei NFBC338, neutralized cell free supernatant.

As for “–KYYGNGVSCTKKHGCKVNWGQAFTCSVNRFANFGH–G————-NC— (bicyclic or more) [Hordeiocin (Hrd), novel pediocin-like class IIa bacteriocin encoded by L. hordei DSM 19519, heterologously expressed]”, the “Bacteriocin Activity (BU/ml) vs. L. innocua DPC3572” value is given as “+++ (+++ = 5120 – 10240 BU/ml)” in the test on L. innocua DPC3572 (setting [10]) and “++ (++ = 320 – 2560 BU/ml)” in the test with L. innocua DPC3572 (setting [11]). Besides, the “radius of the zone of inhibition” value in the test with L. crustorum JCM 15951 turned out to be 1 ± 0 millimeters; in test [1], 2 ± 0 millimeters; in test [2], 2 ± 0.82 millimeters; with L. apodemi DSM 16654, 2.67 ± 0.47 millimeters; in the test with L. mali DSM 20444, 4.33 ± 0.47 millimeters; in test [3] it was 3.67 ± 0.47 millimeters. In addition, the “radius of the zone of inhibition” value worked out at 1 ± 0 millimeters in [4]; 2.67 ± 0.47 millimeters in test [5]; 4.67 ± 0.47 millimeters in test [6]; 4 ± 0 millimeters in test [7]; 2.67 ± 0.47 millimeters in the test with E.mundtii LMG 10748; 1 ± 0.47 millimeters in test [8]. Also, the “radius of the zone of inhibition” value is 2 ± 0 millimeters in the test with P. clausenii DSM 14800; 1.33 ± 0.47 millimeters in the test on L. plantarum DSM 13273; 2.50 ± 0.41 millimeters in the test on L. amylophilus DSM 20509; 3.67 ± 0.47 millimeters in test [9]; 3.67 ± 0.47 millimeters with L. nodensis DSM 16982; 3 ± 0 millimeters in the test on L. kimchicus JCM 15530. In addition, in the test on 32 indicator strains (crude supernatant from the E. coli heterologous host, pediocin PA-1 leader), the “antimicrobial activity / spectrum, in words” value is given as “inhibited the growth of a larger number of the indicators tested than pediocin PA-1”. Also, the “Total no. of strains inhibited” value in the test on 32 indicator strains came to 18.
In the case of “–KYYGNGVYCG-KHKCRVDWGQAWGCSVNRWGAAVGTGGKATIGHC— (bicyclic or more) [Ruminicin (Rum), novel pediocin-like class IIa bacteriocin encoded by L. ruminis DSM 20403, heterologously expressed]”, the “Bacteriocin Activity (BU/ml) vs. L. innocua DPC3572” value in the test on L. innocua DPC3572 (setting [10]) and with L. innocua DPC3572 (setting [11]) was “+++ (+++ = 5120 – 10240 BU/ml)” each time. The “radius of the zone of inhibition” value was 0.33 ± 0.47 millimeters in the test with L. crustorum JCM 15951; 1 ± 0 millimeters in test [1]; 0.67 millimeters in the test with L. amylovorus DSM 20531; 1 ± 0 millimeters in test [2]; 1.67 ± 0.47 millimeters in the test with L. apodemi DSM 16654; 2 ± 0 millimeters in the test with L. mali DSM 20444. In addition, the “radius of the zone of inhibition” value in test [3] is listed as 2.17 ± 0.24 millimeters; in [5], 1.17 ± 0.24 millimeters; in [6], 3.33 ± 0.47 millimeters; in [7] it was 2 ± 0 millimeters; in the test on E.mundtii LMG 10748, 2 ± 0 millimeters; in the test on P. clausenii DSM 14800, 1 ± 0 millimeters. Moreover, the figures for the “radius of the zone of inhibition” value (in the test on L. amylophilus DSM 20509; in test [9]) were 1.33 ± 0.47 millimeters and 2 ± 0 millimeters, respectively. Also, the “Total no. of strains inhibited” value in the test with 32 indicator strains is 14.
